Assays:
Format in all cases: in vivo
Scirpus juncoides [1] = experiment: Test Example 1: herbicidal effect test by treatment of rice paddy soil (immediately after seeding)
Summary of the method: (§1)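 Applied at 120 g a.i./10 ares as diluted emulsion dropped into flooded (~3 cm) paddy soil pots right after sowing seeds 0–1 cm deep; greenhouse, two replicates. At day 14, dry weight of treated versus untreated plants gives % herbicidal rate.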

Echinochloa crus-galli [2] = experiment: as above
Summary of the method: as §1

[3] = system: broad leaf weeds (Lindernia pyxidaria and Monochoria vaginalis); experiment: as above
Summary of the method: as §1

Amaranthus viridis [4] = experiment: Test Example 3: herbicidal effect test by treatment of dry field farming soil (one day after seeding); conditions: 120 g/10a active ingredient, evaluated 14 days after treatment
Summary of the method: (§2)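 Alluvial dry-field soil in pots, top 1 cm mixed with 20 seeds per weed species. One day after seeding, the water-diluted emulsion was sprayed onto the soil surface at 100 L per 10 ares (120 g active ingredient per 10 ares). Duplicate pots; herbicidal rate (%) from plant dry weight versus untreated, 14 days after treatment.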

Echinochloa crus-galli [5] = experiment: as above; conditions: 120 g/10a active ingredient, evaluated 14 days after treatment
Summary of the method: as §2

southern crabgrass [6] = experiment: as above; conditions: 120 g/10a active ingredient, evaluated 14 days after treatment
Summary of the method: as §2

Chenopodium album [7] = experiment: as above; conditions: 120 g/10a active ingredient, evaluated 14 days after treatment
Summary of the method: as §2

Scirpus juncoides [8] = experiment: Test Example 2: herbicidal effect test by treatment during growing period in paddy rice cultivation (seven days after seeding); conditions: for Herbicidal rate (%) Scirpus juncoides: 120 g/10a active ingredient, assessed 14 days after treatment, dry weight vs untreated area
Summary of the method: (§3)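 Seeds sown 0–1 cm deep in puddled, fertilised paddy soil with about 3 cm standing water in a glass greenhouse. Diluted emulsion dropped into the water seven days after seeding at 120 g active ingredient per 10 ares. Herbicidal rate (%) from mean dry weight vs untreated, duplicate, 14 days after treatment.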

Echinochloa crus-galli [9] = experiment: as above; conditions: for Herbicidal rate (%) Echinochloa crus-galli: 120 g/10a active ingredient, assessed 14 days after treatment, dry weight vs untreated area
Summary of the method: as §3

[10] = system: broad leaf weeds (Lindernia pyxidaria and Monochoria vaginalis); experiment: as above; conditions: for Herbicidal rate (%) Lindernia pyxidaria / Herbicidal rate (%) Monochoria vaginalis: 120 g/10a active ingredient, assessed 14 days after treatment, dry weight vs untreated area
Summary of the method: as §3

Amaranthus viridis [11] = experiment: Test Example 4: herbicidal effect test by treatment of leave and stem in dry field farming (seven days after seeding); conditions: 120 g/10a active ingredient; emulsion sprayed seven days after seeding; evaluated 14 days after treatment
Summary of the method: (§4)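 Twenty seeds per species were mixed into the top 1 cm of alluvial soil in 36 cm^2 pots; emulsions were sprayed seven days after seeding at 100 L per 10 ares (120 g active ingredient per 10 ares). Herbicidal rate (%) = {1 − treated/untreated mean dry weight} × 100, 14 days after treatment, duplicate.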

Echinochloa crus-galli [12] = experiment: as above; conditions: 120 g/10a active ingredient; emulsion sprayed seven days after seeding; evaluated 14 days after treatment
Summary of the method: as §4

southern crabgrass [13] = experiment: as above; conditions: 120 g/10a active ingredient; emulsion sprayed seven days after seeding; evaluated 14 days after treatment
Summary of the method: as §4

Chenopodium album [14] = experiment: as above; conditions: 120 g/10a active ingredient; emulsion sprayed seven days after seeding; evaluated 14 days after treatment
Summary of the method: as §4

[15] = 120 g/10a active ingredient, 14 days after treatment, dry weight vs untreated area
[16] = 120 g/10a, rated 14 days after treatment, paddy soil pots
[17] = 120 g/10a active ingredient, dry weight vs untreated area, 14 days after treatment
[18] = Lindernia pyxidaria, 120 g/10a active ingredient, dry weight vs untreated area, 14 days after treatment
[19] = Monochoria vaginalis, 120 g/10a active ingredient, dry weight vs untreated area, 14 days after treatment

Row | Structure (SMILES) | herbicidal rate, Amaranthus viridis (Amaranthus viridis [4]) [%] | herbicidal rate, Echinochloa crus-galli (Echinochloa crus-galli [5]) [%] | herbicidal rate, southern crabgrass (southern crabgrass [6]) [%] | herbicidal rate, Chenopodium album (Chenopodium album [7]) [%] | herbicidal effect (herbicidal rate), Amaranthus viridis (Amaranthus viridis [11]) [%] | herbicidal effect (herbicidal rate), Echinochloa crus-galli (Echinochloa crus-galli [12]) [%] | herbicidal effect (herbicidal rate), southern crabgrass (southern crabgrass [13]) [%] | herbicidal effect (herbicidal rate), Chenopodium album (Chenopodium album [14]) [%] | Herbicidal rate (%) Scirpus juncoides (Scirpus juncoides [1]; [17]) [%] | Herbicidal rate (%) Echinochloa crus-galli (Echinochloa crus-galli [2]; [17]) [%] | Herbicidal rate (%) Lindernia pyxidaria [3, 18] [%] | Herbicidal rate (%) Monochoria vaginalis [3, 19] [%] | Herbicidal rate (%) Scirpus juncoides (Scirpus juncoides [8]) [%] | Herbicidal rate (%) Echinochloa crus-galli (Echinochloa crus-galli [9]) [%] | Herbicidal rate (%) Lindernia pyxidaria ([10]; Lindernia pyxidaria) [%] | Herbicidal rate (%) Monochoria vaginalis ([10]; Monochoria vaginalis) [%] | also measured
1 | Cc1ccc(S(=O)(=O)N(c2ccccc2Cc2c(C)n(C(C)C)oc2=O)S(=O)(=O)C(F)(F)F)cc1 [Compound 1-1127] | 40 | 90 | 70 | 60 | 40 | 90 | 40 | 40 | – | – | – | – | – | – | – | – | Herbicidal rate (%) Scirpus juncoides (Scirpus juncoides [1]; [15]): 90%; Herbicidal rate (%) Echinochloa crus-galli (Echinochloa crus-galli [2]; [15]): 100%; Herbicidal rate (%) Lindernia pyxidaria ([3]; Lindernia pyxidaria, 120 g/10a active ingredient, 14 days after treatment, dry weight vs untreated area): 100%; Herbicidal rate (%) Monochoria vaginalis ([3]; Monochoria vaginalis, 120 g/10a active ingredient, 14 days after treatment, dry weight vs untreated area): 100%; herbicidal rate, Scirpus juncoides (Scirpus juncoides [8]; [16]): 90%; herbicidal rate, Echinochloa crus-galli (Echinochloa crus-galli [9]; [16]): 100%; herbicidal rate, Lindernia pyxidaria ([10]; Lindernia pyxidaria, 120 g/10a, rated 14 days after treatment, paddy soil pots): 100%; herbicidal rate, Monochoria vaginalis ([10]; Monochoria vaginalis, 120 g/10a, rated 14 days after treatment, paddy soil pots): 100%
2 | CSCCn1oc(=O)c(Cc2ccccc2N(C(=O)C(C)C)S(=O)(=O)C(F)(F)F)c1C [Compound 1-336] | 90 | 90 | 90 | 90 | 40 | 90 | 90 | 40 | 90 | 90 | 90 | 90 | 90 | 90 | 90 | 90 | –
3 | CCC(=O)N(c1ccccc1Cc1c(C)n(C(C)COC)oc1=O)S(=O)(=O)C(F)(F)F (stereo not shown) [Compound 1-319] | 90 | 90 | 90 | 90 | 40 | 90 | 90 | 40 | 90 | 90 | 90 | 90 | 90 | 90 | 90 | 90 | –
4 | COC(=O)N(c1ccccc1Cc1c(C)n(CCSC)oc1=O)S(=O)(=O)C(F)(F)F [Compound 1-592] | 90 | 90 | 90 | 90 | 40 | 90 | 90 | 40 | 90 | 90 | 90 | 90 | 90 | 90 | 90 | 90 | –
